{"source": "patent US7749760B2", "about": "“Vγ9Vδ2 T cell proliferation agent, method for producing activated Vγ9Vδ2 T cells, and uses thereof” (Hyogo College of Medicine, priority 2008, dated 2010)", "tested_on": "Vγ9Vδ2 T cells", "experiment": "Production of IFN-γ, TNF and GM-CSF, ELISA of culture supernatants", "type": "cell-based, human", "description": "Supernatants of the culture solutions having various conditions under which Vγ9Vδ2 T cells were cultured were assayed by ELISA so that the production of cytokines (e.g., IFN-γ, TNF, GM-CSF) was measured.\nThe Vγ9Vδ2 T cells were restimulated both in the presence of IL-18 and in the absence of IL-18. After 24 hours, a supernatant of the culture solution containing IL-18 and a supernatant of the culture solution devoid of IL-18 were compared. In this case also, the result obtained was similar to the above.", "key": {"[1]": {"conditions": "purified activated Vγ9Vδ2 T cells restimulated, 24 hours"}}}
{"substance": "IL-18: interleukin 18, cytokine, IFN-γ inducing factor, obtained from GlaxoSmithKline K.K.", "values": [{"measurement": "production of GM-CSF, supernatant supplemented with IL-18 versus without", "setting": "data not shown", "result": "about 10 times"}, {"measurement": "production of IFN-γ, presence versus absence of IL-18", "setting": "[1]", "result": "far larger production"}, {"measurement": "production of TNFα, presence versus absence of IL-18", "setting": "[1]", "result": "far larger production"}]}
